Measured values as given in patent US20080027063A1, “IMIDAZOPYRAZINES AS PROTEIN KINASE INHIBITORS” (Schering Corporation, priority 2006, published 2008).

Test system: CHK1
Assay: CHK1 SPA Assay
Type: biochemical
Details: recombinant His-CHK1, CDC25C biotinylated peptide, 1 μM ATP, 2 hours, room temperature
Protocol: CHK1 SPA Assay An in vitro assay was developed that utilizes recombinant His-CHK1 expressed in the baculovirus expression system as an enzyme source and a biotinylated peptide based on CDC25C as substrate (biotin-[…]). Materials and Reagents: 1) CDC25C […]-term Biotinylated peptide substrate (25 mg), stored at -20° C., Custom Synthesis by Research Genetics: biotin-[…] 2) His-CHK1 In House lot P976, 235 μg/mL, stored at -80° C. 3) D-PBS (without CaCl and MgCl): GIBCO, Cat.# 14190-144 4) SPA beads: Amersham, Cat.# SPQ0032: 500 mg/vial • Add 10 mls of D-PBS to 500 mg of SPA beads to make a working concentration of 50 mg/ml. Store at 4° C. Use within 2 week after hydration. 5) 96-Well White Microplate with Bonded GF/B filter: Packard, Cat.# 6005177 6) Top seal-A 96 well Adhesive Film: Perkin Elmer, Cat.# 6005185 7) 96-well Non-Binding White Polystyrene Plate: Corning, Cat. # 6005177 8) MgCl2: Sigma, Cat.# M-8266 9) DTT: Promega, Cat.# V3155 10) ATP, stored at 4° C.: Sigma, Cat.# A-5394 11) γ^33P-ATP, 1000-3000 Ci/mMol: Amersham, Cat.# AH9968 12) NaCl: Fisher Scientific, Cat.# BP358-212 13) H3PO4 85% Fisher, Cat.#A242-500 14) Tris-HCL pH 8.0: Bio-Whittaker, Cat. # 16-[…] 15) Staurosporine, 100 ug: CALBIOCHEM. Cat. # 569397 16) Hypure Cell Culture Grade Water, 500 mL: HyClone, Cat.# SH30529.02 Reaction Mixtures: 1) Kinase Buffer: 50 mM Tris pH 8.0; 10 mM MgCl2; 1 mM DTT 2) His-CHK1, In House Lot P976, MW 30 KDa, stored at -80° C. 6 nM is required to yield positive controls of 5,000 CPM. For 1 plate (100 rxn): dilute 8 μL of 235 ug/mL (7.83 uM) stock in 2 mL Kinase Buffer. This makes a 31 nM mixture. Add 20 μL/well. This makes a final reaction concentration of 6 nM. 3) CDC25C Biotinylated peptide. Dilute CDC25C to 1 mg/mL (385 uM) stock and store at -20° C. For 1 plate (100 rxn): dilute 10 μL of 1 mg/mL peptide stock in 2 ml Kinase Buffer. This gives a 1.925 uM mix. Add 20 μL/rxn. This makes a final reaction concentration of 385 nM 4) ATP Mix. For 1 plate (100 rxn): dilute 10 μL of 1 mM ATP (cold) stock and 2 μL fresh P33-ATP (20 μCi) in 5 ml Kinase Buffer. This gives a 2 uM ATP (cold) solution; add 50 μl/well to start the reaction. Final volume is 100 μl/rxn so the final reaction concentrations will be 1 uM ATP (cold) and 0.2 μCi/reaction. 5) Stop Solution: For 1 plate add: To 10 mL Wash Buffer 2 (2M NaCl 1% H3PO4): 1 mL SPA bead slurry (50 mg); Add 100 μL/well 6) Wash buffer 1: 2 M NaCl 7) Wash buffer 2: 2 M NaCl, 1% H3PO4 Assay Procedure: [table] 1) Dilute compounds to desired concentrations in water/10% DMSO-this will give a final DMSO concentration of 1% in the reaction. Dispense 10 μl/rxn to appropriate wells. Add 10 μL 10% DMSO to positive (CHK1+CDC25C+ATP) and negative (CHK1+ATP only) control wells. […]

IC50 [nM] | Structure (SMILES)
187 | Nc1ncc(-c2cc3ccccc3s2)n2cc(C3CCCNC3)nc12 (stereo not shown)
216 | Cc1ccc(-c2cnc(N)c3nc(C4CCCNC4)cn23)s1 (stereo not shown)
84 | Nc1ncc(-c2cc(-c3ccc(Cl)cc3)cs2)n2cc([C@H]3CCCNC3)nc12
139 | Nc1ncc(-c2cc(-c3ccccc3)cs2)n2cc([C@H]3CCCNC3)nc12
